Laboratory results reported in PMC11945486, “TAS1R2/TAS1R3 Single-Nucleotide Polymorphisms Affect Sweet Taste Receptor Activation by Sweeteners: The SWEET Project” (Nutrients, 2025).
Where two headings read alike, the source gives them in different places. No end group written: not given here.

T1: human TAS1R2-C9S/TAS1R3-WT (Homo sapiens, UniProt Q7RTX0+Q8TE23)
T1 construct: expressed in transfected cells; host or cells: HEK293T-Gα16gust44
T1 sequence (Q8TE23 20-839): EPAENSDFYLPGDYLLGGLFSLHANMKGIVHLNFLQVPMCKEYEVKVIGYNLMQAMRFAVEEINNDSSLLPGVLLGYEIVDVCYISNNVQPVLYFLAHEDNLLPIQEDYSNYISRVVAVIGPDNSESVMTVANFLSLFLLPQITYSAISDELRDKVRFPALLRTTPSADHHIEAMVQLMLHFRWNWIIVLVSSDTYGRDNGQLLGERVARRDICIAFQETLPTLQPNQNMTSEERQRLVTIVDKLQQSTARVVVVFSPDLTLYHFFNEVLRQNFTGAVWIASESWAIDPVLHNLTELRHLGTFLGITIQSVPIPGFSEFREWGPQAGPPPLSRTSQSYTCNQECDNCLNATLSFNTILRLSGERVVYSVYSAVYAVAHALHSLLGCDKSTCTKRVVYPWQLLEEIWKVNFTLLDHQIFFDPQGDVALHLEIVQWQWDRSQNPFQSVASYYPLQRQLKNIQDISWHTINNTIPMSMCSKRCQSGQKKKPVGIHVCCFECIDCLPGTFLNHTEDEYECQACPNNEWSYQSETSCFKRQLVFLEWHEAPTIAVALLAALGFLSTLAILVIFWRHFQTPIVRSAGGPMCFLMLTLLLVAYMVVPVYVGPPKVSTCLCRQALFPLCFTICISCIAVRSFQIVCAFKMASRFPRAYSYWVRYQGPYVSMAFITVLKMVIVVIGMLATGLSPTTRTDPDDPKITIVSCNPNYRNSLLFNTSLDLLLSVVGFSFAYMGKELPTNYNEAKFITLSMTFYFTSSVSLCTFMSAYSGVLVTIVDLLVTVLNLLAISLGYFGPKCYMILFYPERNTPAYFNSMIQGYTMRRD
T1 sequence (Q7RTX0 21-852): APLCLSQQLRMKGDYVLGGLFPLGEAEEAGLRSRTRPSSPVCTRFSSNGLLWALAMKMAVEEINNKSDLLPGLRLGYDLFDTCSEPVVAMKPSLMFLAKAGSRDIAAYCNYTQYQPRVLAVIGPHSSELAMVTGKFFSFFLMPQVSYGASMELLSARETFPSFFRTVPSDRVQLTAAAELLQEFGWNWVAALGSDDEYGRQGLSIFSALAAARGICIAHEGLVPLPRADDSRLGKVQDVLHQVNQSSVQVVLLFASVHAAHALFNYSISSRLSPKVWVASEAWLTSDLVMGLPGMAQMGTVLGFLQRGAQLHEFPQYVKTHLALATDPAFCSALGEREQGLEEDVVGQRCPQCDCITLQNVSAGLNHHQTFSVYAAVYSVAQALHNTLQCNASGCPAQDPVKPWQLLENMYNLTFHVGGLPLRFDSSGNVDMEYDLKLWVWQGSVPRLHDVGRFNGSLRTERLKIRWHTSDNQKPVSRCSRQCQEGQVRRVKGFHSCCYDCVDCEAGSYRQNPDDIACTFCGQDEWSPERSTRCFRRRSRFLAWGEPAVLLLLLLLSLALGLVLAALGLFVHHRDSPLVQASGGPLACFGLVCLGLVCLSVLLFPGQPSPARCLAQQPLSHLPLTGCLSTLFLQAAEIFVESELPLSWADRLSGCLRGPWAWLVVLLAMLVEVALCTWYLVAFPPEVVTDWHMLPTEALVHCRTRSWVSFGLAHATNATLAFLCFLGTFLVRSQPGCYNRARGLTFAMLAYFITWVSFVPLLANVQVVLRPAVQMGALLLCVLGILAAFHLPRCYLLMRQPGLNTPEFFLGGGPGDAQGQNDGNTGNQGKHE

T2: human TAS1R2-WT/TAS1R3-A5T (Homo sapiens, UniProt Q7RTX0+Q8TE23, A5T)
T2 construct: expressed in transfected cells; host or cells: HEK293T stably expressing Gα16gust44
T2 sequence (Q8TE23 20-839): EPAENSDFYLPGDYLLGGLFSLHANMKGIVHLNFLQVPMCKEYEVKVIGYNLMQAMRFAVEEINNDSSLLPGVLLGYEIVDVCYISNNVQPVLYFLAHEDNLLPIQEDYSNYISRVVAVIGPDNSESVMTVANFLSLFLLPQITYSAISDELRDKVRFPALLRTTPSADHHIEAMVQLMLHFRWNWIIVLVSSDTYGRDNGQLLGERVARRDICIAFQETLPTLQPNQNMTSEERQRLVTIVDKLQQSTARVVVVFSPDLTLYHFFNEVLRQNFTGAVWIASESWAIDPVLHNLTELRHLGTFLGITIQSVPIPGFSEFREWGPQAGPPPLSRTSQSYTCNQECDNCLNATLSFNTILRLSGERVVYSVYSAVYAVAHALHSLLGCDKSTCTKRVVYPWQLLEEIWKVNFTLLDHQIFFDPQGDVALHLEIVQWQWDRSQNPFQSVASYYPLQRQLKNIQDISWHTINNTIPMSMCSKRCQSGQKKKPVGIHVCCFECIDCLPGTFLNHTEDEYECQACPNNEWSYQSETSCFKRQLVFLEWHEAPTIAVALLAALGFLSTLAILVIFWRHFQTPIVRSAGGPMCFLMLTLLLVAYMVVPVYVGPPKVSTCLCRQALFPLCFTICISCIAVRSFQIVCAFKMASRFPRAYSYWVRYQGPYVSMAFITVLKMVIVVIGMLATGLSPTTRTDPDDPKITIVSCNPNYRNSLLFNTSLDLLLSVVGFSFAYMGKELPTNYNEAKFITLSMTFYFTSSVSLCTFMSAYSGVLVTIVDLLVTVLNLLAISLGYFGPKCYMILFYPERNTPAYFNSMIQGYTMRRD
T2 sequence (Q7RTX0 21-852): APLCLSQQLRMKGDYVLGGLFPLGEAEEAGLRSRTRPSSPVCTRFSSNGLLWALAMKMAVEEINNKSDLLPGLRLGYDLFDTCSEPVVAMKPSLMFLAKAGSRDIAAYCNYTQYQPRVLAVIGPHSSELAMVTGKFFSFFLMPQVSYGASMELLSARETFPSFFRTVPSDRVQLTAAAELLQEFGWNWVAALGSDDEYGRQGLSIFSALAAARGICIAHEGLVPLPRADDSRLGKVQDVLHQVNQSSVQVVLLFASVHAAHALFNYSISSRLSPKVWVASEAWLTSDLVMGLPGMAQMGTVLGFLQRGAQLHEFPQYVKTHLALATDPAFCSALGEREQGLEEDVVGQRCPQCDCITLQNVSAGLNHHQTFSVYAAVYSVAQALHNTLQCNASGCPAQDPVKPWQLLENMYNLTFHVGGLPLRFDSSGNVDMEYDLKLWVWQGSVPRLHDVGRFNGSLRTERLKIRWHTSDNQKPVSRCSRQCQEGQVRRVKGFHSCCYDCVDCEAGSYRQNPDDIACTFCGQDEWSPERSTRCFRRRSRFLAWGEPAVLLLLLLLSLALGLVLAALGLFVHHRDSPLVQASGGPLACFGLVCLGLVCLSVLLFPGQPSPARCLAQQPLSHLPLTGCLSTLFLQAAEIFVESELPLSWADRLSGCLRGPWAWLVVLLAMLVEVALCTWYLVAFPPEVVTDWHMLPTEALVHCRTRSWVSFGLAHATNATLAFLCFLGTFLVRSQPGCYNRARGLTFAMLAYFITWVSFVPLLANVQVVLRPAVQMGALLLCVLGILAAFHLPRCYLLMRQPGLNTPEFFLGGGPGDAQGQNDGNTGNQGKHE


Assays:
[1] = target: T1, human TAS1R2-C9S/TAS1R3-WT; test: Calcium mobilisation assay, TAS1R2 variant C9S with TAS1R3-WT; format: cell-based; conditions: for Max ΔF/F0: maximal signal amplitude
From the text: (§1) The coding sequences for TAS1R2 and TAS1R3 were commercially synthesised, and the human codon was optimised for expression in human cells. The coding sequences of human TAS1R2 and TAS1R3 were subcloned and inserted into the mammalian expression vectors pcDNA6/myc-HisA and pcDNA4/myc-HisA (Invitrogen; Thermo Fisher Scientific; Illkirch, France) between the EcoRI and NotI restriction sites, generating the plasmids pcDNA6-TAS1R2 and pcDNA4-TAS1R3, respectively. To increase protein expression in mammalian cells, an upstream start codon was used, which was a sequence called MAX, corresponding to the QBI SP163 element also described in pcDNA4-HisMax (Invitrogen; Thermo Fisher Scientific; Illkirch, France). To measure the expression level of the receptor by immunohistochemistry, we used the FLAG sequence ([…]) in the C-terminal position, which encodes the FLAG tag epitope. SNP variants of TAS1R2 and TAS1R3 were constructed based on […], respectively, using site-directed mutagenesis (Genewiz; Leipzig, Germany).
(§2) The HEK293T cells were kindly provided by Jay P. Slack (Givaudan Flavors Corporation; Cincinnati, OH, USA). HEK293T cells stably transfected with Gα16gust44 [43, 67] were seeded in poly-D-lysine-coated clear-bottom black 96-well plates (0.35 × 10^5 cells/well) in high-glucose DMEM supplemented with 2 mM GlutaMAX, 10% dialysed foetal bovine serum with penicillin/streptomycin and G418 (400 μg/mL) at 37 °C and 6.3% CO2 in a humidified atmosphere as previously reported. […] As a negative control, HEK293T cells were mock-transfected with the empty expression vector. After a further 24 h of incubation, the HEK293T cells were washed with C1 buffer (130 mM NaCl, 5 mM KCl, 10 mM HEPES pH 7.4 and 2 mM CaCl2). The 96-well plates containing the cells were then stimulated with sweet-tasting compounds. […] Different concentration ranges were tested depending on the sweet compound injected. The Ca^2+ changes were expressed as fractional changes in fluorescent light intensity: ΔF/F = (F − F0)/F0, where F was the fluorescent light intensity at each point, and F0 was the value of emitted fluorescent light prior to stimulus application. To calculate dose–response relationships, the changes in fluorescence upon stimulus application were averaged, mock-subtracted and baseline-corrected. The dose–response data obtained were adjusted using a 4-parameter logistic equation. The half-maximal effective concentrations (EC50 values) and maximal signal amplitudes were calculated using SigmaPlot software (version 15.0) (Systat Software; San Jose, CA, USA).
(§3) For in vitro calcium mobilisation assay performed on hTAS1R2-SNPs, hTAS1R3-SNPs and mTAS1R3-I60T, 6 to 7 concentrations were tested for each sweet compound, plus buffer alone. All concentration–receptor combinations were measured in duplicate, and each experiment was repeated at least 4 times (8 wells/concentration). Results were expressed for each concentration as ΔF/F mean ± SEM and represented as dose–response curves.

[2] = target: T2, human TAS1R2-WT/TAS1R3-A5T; test: Calcium mobilisation assay, TAS1R2-WT with TAS1R3 variant A5T; format: cell-based; conditions: for Max ΔF/F0: maximal signal amplitude
From the text: as §1, §2, §3

Molecule	EC50 [1]	R1 = Variant EC50/WT EC50 [1]	Max ΔF/F0 [1]	R1 = Variant EC50/WT EC50 [2]	Max ΔF/F0 [2]	EC50 ([2]; read-out: EC50)	EC50 ([2]; brazzein)
OC[C@H]1O[C@H](O[C@]2(CCl)O[C@H](CCl)[C@@H](O)[C@@H]2O)[C@H](O)[C@@H](O)[C@H]1Cl [Sucralose]	88 ± 15 µM	1.0	0.72 ± 0.05	1.2	0.63 ± 0.01	135 ± 5 µM	
C[C@H](CC[C@@H](O[C@@H]1O[C@H](CO[C@@H]2O[C@H](CO)[C@@H](O)[C@H](O)[C@H]2O)[C@@H](O)[C@H](O)[C@H]1O[C@@H]1O[C@H](CO)[C@@H](O)[C@H](O)[C@H]1O)C(C)(C)O)[C@H]1CC[C@@]2(C)[C@@H]3CC=C4[C@@H](CC[C@H](O[C@@H]5O[C@H](CO[C@@H]6O[C@H](CO)[C@@H](O)[C@H](O)[C@H]6O)[C@@H](O)[C@H](O)[C@H]5O)C4(C)C)[C@]3(C)[C@H](O)C[C@]12C [Mogroside V, mogroside V]	18.6 ± 1.6 µM	1.1	1.32 ± 0.04	1.0	0.97 ± 0.01	31.3 ± 1 µM	
COC(=O)[C@H](Cc1ccccc1)NC(=O)[C@H](CC(=O)O)NCCC(C)(C)C [Neotame]	0.85 ± 0.16 µM	1.0	0.66 ± 0.04	1.0	0.65 ± 0.01	1.18 ± 0.05 µM	
brazzein (QDKCKKVYENYPVSKCQLANQCNYDCKLDKHARSGECFYDEKRNLQCICDYCEY; ends and bridges not checked; cysteine pairing not given here; UniProt P56552 1-54, looked up) [sweet-tasting protein obtained by recombinant production using the yeast Pichia pastoris]		1.2	1.14 ± 0.03	1.0	1.04 ± 0.04		108.3 ± 11.5 µg/mL
C=C(C)[C@@H]1CC=C(/C=N/O)CC1 [Perillartine, perillartine]	17.8 ± 1.2 µM	1.0	1.29 ± 0.03	1.0	1.42 ± 0.23	13.2 ± 6.4 µM	
CC1=CC(=O)NS(=O)(=O)O1 [Acesulfame K, acesulfame K]	466 ± 54 µM	0.7	0.32 ± 0.01	1.4	0.31 ± 0.01	852 ± 34 µM	
C=C1C[C@@]23CC[C@H]4[C@@](C)(CCC[C@@]4(C)C(=O)O[C@@H]4O[C@H](CO)[C@@H](O)[C@H](O[C@@H]5O[C@H](CO)[C@@H](O)[C@H](O)[C@H]5O)[C@H]4O[C@@H]4O[C@H](CO)[C@@H](O)[C@H](O)[C@H]4O)[C@@H]2CC[C@]1(O[C@@H]1O[C@H](CO)[C@@H](O)[C@H](O[C@@H]2O[C@H](CO)[C@@H](O)[C@H](O)[C@H]2O)[C@H]1O[C@@H]1O[C@H](CO)[C@@H](O)[C@H](O)[C@H]1O)C3 [Rebaudioside M, rebaudioside M]	23.7 ± 1.6 µM	1.4	1.18 ± 0.03	0.7	1.06 ± 0.02	30.2 ± 1.5 µM	
O=S(=O)(O)NC1CCCCC1 [Cyclamate, cyclamate]	1810 ± 55 µM					1790 ± 35 µM	
COc1ccc(CCC(=O)c2c(O)cc(O[C@@H]3O[C@H](CO)[C@@H](O)[C@H](O)[C@H]3O[C@@H]3O[C@@H](C)[C@H](O)[C@@H](O)[C@H]3O)cc2O)cc1O [NHDC, neohesperidin dihydrochalcone]	99 ± 5.2 µM	1.3	0.83 ± 0.02	1.5	1.24 ± 0.01	76.5 ± 13.1 µM	
thaumatin		0.9	0.61 ± 0.01	0.9	0.73 ± 0.04	9.7 ± 0.8 µM	
thaumatin (protein, Eight disulfides, sweet-tasting plant protein, E957) ATFEIVNRCSYTVWAAASKGDAALDAGGRQLNSGESWTINVEPGTKGGKIWARTDCYFDDSGSGICKTGDCGGLLRCKRFGRPPTTLAEFSLNQYGKDYIDISNIKGFNVPMDFSPTTRGCRGVRCAADIVGQCPAKLKAPGGGCNDACTVFQTSEYCCTTGKCGPTEYSRFFKRLCPDAFSYVLDKPTTVTCPGSSNYRVTFCPTA	6.6 ± 0.1 µM						
